# Source: patent US20210382058A1, “PATIENT SELECTION FOR TREATMENT OF MYC POSITIVE CANCERS WITH INDENOISOQUINOLINES” (Purdue Research Foundation, priority 2020, published 2021)
# Where two headings read alike, the source gives them in different places.
# Tests used:
# [1] = tested on: MYC protein expression in MCF-7 breast cancer cells; assay: Western blotting of MYC protein level in MCF-7 cells; format: cell-based, human; conditions: Homo sapiens, MCF7; western blotting, MCF-7 cells, 0.5, 1, 2, and 4 μM, 24 hours; read-out: MYC Inhibition
# Procedure, shortened: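 MCF-7 cells were exposed to compounds at 0.5, 1, 2 and 4 μM for 24 hours at 37° C. MYC was detected by immunoblot with ECL, using rabbit anti-MYC (1:1000) and anti-GAPDH (1:2000) as loading control.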
# NCI-60 cancer cell lines = assay: NCI-60 cancer cell line drug screen (GI50, MGM); format: cell-based, human; conditions: Homo sapiens; for GI50: read-out: Antiproliferative Activities [GI50 (μM)]
# Experimental: Cancer cells were incubated with the test compounds at five concentrations ranging from 100 μM to 10 nM for 48 h. […] The approximate average of GI50 values across the entire panel of NCI-60 cancer cell lines for each compound was recorded as the MGM value.
# human topoisomerase I = biological target: T1, human topoisomerase I (Homo sapiens, UniProt P11387); conditions: relative topoisomerase I inhibition levels, previously determined, six levels (0 - 5, +++++ = 5); cited from earlier work
# T1 sequence (P11387 1-765): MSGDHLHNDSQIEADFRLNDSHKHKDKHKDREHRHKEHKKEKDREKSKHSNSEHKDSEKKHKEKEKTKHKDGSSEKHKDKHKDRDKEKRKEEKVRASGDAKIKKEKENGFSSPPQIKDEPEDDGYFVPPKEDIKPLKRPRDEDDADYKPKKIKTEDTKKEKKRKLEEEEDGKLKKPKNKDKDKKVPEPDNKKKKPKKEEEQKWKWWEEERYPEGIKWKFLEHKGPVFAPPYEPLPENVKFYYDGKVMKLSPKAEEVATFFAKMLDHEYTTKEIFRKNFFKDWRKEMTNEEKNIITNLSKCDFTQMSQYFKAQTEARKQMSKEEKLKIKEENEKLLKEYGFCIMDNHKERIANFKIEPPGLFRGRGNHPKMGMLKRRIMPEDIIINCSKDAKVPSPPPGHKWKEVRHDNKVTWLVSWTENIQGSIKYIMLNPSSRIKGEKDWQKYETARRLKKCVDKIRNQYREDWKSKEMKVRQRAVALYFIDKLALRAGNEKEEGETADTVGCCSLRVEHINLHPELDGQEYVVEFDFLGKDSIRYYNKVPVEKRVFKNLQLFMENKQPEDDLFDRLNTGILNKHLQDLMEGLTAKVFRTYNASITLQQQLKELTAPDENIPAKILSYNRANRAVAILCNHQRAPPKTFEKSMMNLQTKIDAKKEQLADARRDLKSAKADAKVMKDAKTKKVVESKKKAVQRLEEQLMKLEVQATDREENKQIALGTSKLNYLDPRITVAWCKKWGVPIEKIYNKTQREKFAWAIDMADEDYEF
compound,measurement,setting,value
CN(C)CCCn1c2c(c3ccc(-c4ccn[nH]4)cc3c1=O)C(=O)c1ccccc1-2 [Compound 30],minimal effective concentration,[1],4 µM
same,GI50,"NCI-60 cancer cell lines; 786-0, Renal Cancer, 786-0",0.22 µM
same,GI50,"NCI-60 cancer cell lines; A498, Renal Cancer, A498",10.6 µM
same,GI50,"NCI-60 cancer cell lines; A549, Non-Small Cell Lung Cancer, A549/ATCC",0.06 µM
same,GI50,"NCI-60 cancer cell lines; ACHN, Renal Cancer, ACHN",0.09 µM
same,GI50,"NCI-60 cancer cell lines; BT-549, Breast Cancer, BT-549",3.1 µM
same,GI50,"NCI-60 cancer cell lines; CCRF-CEM, Leukemia, CCRF-CEM",0.03 µM
same,GI50,"NCI-60 cancer cell lines; COLO 205, Colon Cancer, COLO 205",4.92 µM
same,GI50,"NCI-60 cancer cell lines; DU-145, Prostate Cancer, DU-145",0.2 µM
same,GI50,"NCI-60 cancer cell lines; EKVX, Non-Small Cell Lung Cancer, EKVX",2.91 µM
same,GI50,"NCI-60 cancer cell lines; HCC 2998, Colon Cancer, HCC-2998",10 µM
same,GI50,"NCI-60 cancer cell lines; HCT-15, Colon Cancer, HCT-15",0.09 µM
same,GI50,"NCI-60 cancer cell lines; HCT-116, Colon Cancer, HCT-116",0.39 µM
same,GI50,"NCI-60 cancer cell lines; HL-60, Leukemia, HL-60(TB)",0.03 µM
same,GI50,"NCI-60 cancer cell lines; HOP-62, Non-Small Cell Lung Cancer, HOP-62",0.18 µM
same,GI50,"NCI-60 cancer cell lines; HOP-92, Non-Small Cell Lung Cancer, HOP-92",0.13 µM
same,GI50,"NCI-60 cancer cell lines; HT-29, Colon Cancer, HT29",0.34 µM
same,GI50,"NCI-60 cancer cell lines; Hs-578T, Breast Cancer, HS 578T",4.9 µM
same,GI50,"NCI-60 cancer cell lines; IGROV-1, Ovarian Cancer, IGROV1",0.58 µM
same,GI50,"NCI-60 cancer cell lines; K562, Leukemia, K-562",0.34 µM
same,GI50,"NCI-60 cancer cell lines; KM12, Colon Cancer, KM12",0.53 µM
same,GI50,"NCI-60 cancer cell lines; LOX IMVI, Melanoma, LOX IMVI",0.1 µM
same,GI50,"NCI-60 cancer cell lines; Leukemia, SR",0.02 µM
same,GI50,"NCI-60 cancer cell lines; MCF7, Breast Cancer, MCF7",0.04 µM
same,GI50,"NCI-60 cancer cell lines; MDA-MB-231, Breast Cancer, MDA-MB-231/ATCC",1.27 µM
same,GI50,"NCI-60 cancer cell lines; MDA-MB-435, Melanoma, MDA-MB-435",10.3 µM
same,GI50,"NCI-60 cancer cell lines; MDA-MB-468, Breast Cancer, MDA-MB-468",7.84 µM
same,GI50,"NCI-60 cancer cell lines; MOLT-4, Leukemia, MOLT-4",0.02 µM
same,GI50,"NCI-60 cancer cell lines; Malme-3M, Melanoma, MALME-3M",0.93 µM
same,GI50,"NCI-60 cancer cell lines; Melanoma, M14",1.65 µM
same,GI50,"NCI-60 cancer cell lines; NCI-H23, Non-Small Cell Lung Cancer, NCI-H23",0.24 µM
same,GI50,"NCI-60 cancer cell lines; NCI-H226, Non-Small Cell Lung Cancer, NCI-H226",0.27 µM
same,GI50,"NCI-60 cancer cell lines; NCI-H322M, Non-Small Cell Lung Cancer, NCI-H322M",7.05 µM
same,GI50,"NCI-60 cancer cell lines; NCI-H460, Non-Small Cell Lung Cancer, NCI-H460",0.04 µM
same,GI50,"NCI-60 cancer cell lines; NCI-H522, Non-Small Cell Lung Cancer, NCI-H522",0.84 µM
same,GI50,"NCI-60 cancer cell lines; OVCAR-3, Ovarian Cancer, OVCAR-3",6.09 µM
same,GI50,"NCI-60 cancer cell lines; OVCAR-4, Ovarian Cancer, OVCAR-4",1.45 µM
same,GI50,"NCI-60 cancer cell lines; OVCAR-5, Ovarian Cancer, OVCAR-5",1.51 µM
same,GI50,"NCI-60 cancer cell lines; OVCAR-8, Ovarian Cancer, OVCAR-8",0.16 µM
same,GI50,"NCI-60 cancer cell lines; Ovarian Cancer, NCl/ADR-RES",1.48 µM
same,GI50,"NCI-60 cancer cell lines; Prostate Cancer, PC-3",1.21 µM
same,GI50,"NCI-60 cancer cell lines; RPMI-8226, Leukemia, RPMI-8226",0.12 µM
same,GI50,"NCI-60 cancer cell lines; RXF 393, Renal Cancer, RXF 393",1.66 µM
same,GI50,"NCI-60 cancer cell lines; Renal Cancer, U0-31",0.3 µM
same,GI50,"NCI-60 cancer cell lines; SF-268, CNS Cancer, SF-268",1.85 µM
same,GI50,"NCI-60 cancer cell lines; SF-295, CNS Cancer, SF-295",0.36 µM
same,GI50,"NCI-60 cancer cell lines; SF-539, CNS Cancer, SF-539",1.04 µM
same,GI50,"NCI-60 cancer cell lines; SK-MEL-2, Melanoma, SK-MEL-2",18.2 µM
same,GI50,"NCI-60 cancer cell lines; SK-MEL-5, Melanoma, SK-MEL-5",0.48 µM
same,GI50,"NCI-60 cancer cell lines; SK-MEL-28, Melanoma, SK-MEL-28",2.01 µM
same,GI50,"NCI-60 cancer cell lines; SK-OV-3, Ovarian Cancer, SK-OV-3",1.21 µM
same,GI50,"NCI-60 cancer cell lines; SN12C, Renal Cancer, SN12C",0.25 µM
same,GI50,"NCI-60 cancer cell lines; SNB-19, CNS Cancer, SNB-19",0.33 µM
same,GI50,"NCI-60 cancer cell lines; SNB-75, CNS Cancer, SNB-75",1.39 µM
same,GI50,"NCI-60 cancer cell lines; SW-620, Colon Cancer, SW-620",0.2 µM
same,GI50,"NCI-60 cancer cell lines; T47D, Breast Cancer, T-47D",0.63 µM
same,GI50,"NCI-60 cancer cell lines; TK-10, Renal Cancer, TK-10",2.75 µM
same,GI50,"NCI-60 cancer cell lines; U-251, CNS Cancer, U251",0.18 µM
same,GI50,"NCI-60 cancer cell lines; UACC-62, Melanoma, UACC-62",0.72 µM
same,GI50,"NCI-60 cancer cell lines; UACC-257, Melanoma, UACC-257",12.3 µM
same,mean GI50 across NCI-60 panel (MGM),NCI-60 cancer cell lines; average of GI50 values across the entire panel of NCI-60 cancer cell lines,600 nM
same,Top1 Inhibiton,human topoisomerase I,"0 (no inhibition, 0, no MYC expression inhibition up to 4.0 μM)"
